Assay results as given in patent US12491159B2, “Controlled release formulations for the induction and proliferation of blood cells” (UNIVERSITY OF PITTSBURGH—OF THE COMMONWEALTH SYSTEM OF …, priority 2012, dated 2025).
No end group written: not given here.

How the values were obtained:
naïve CD4+CD25− cells = test: Treg induction from naïve T cells by soluble factors (FoxP3 staining, flow cytometry); format: cell-based, mouse
[1] = cited from earlier work
[2] = system: dendritic cells / FoxP3+ CD4+ T-cells; test: VIP bioactivity assay: DC culture and CD4+ T cell chemotaxis; format: cell-based, mouse; settings: LPS
Method: Three separate DC cultures with 24 individual wells were completed in accordance with Example XIII Both GM-CSF and IL-4 were used to culture the cells in the first two DC cell cultures, but for the third DC culture, the IL-4 was omitted to reduce its possible interference in steering immune cells toward a tolerogenic phenotype. Chemotaxis studies of CD4+ T-cells were performed and the percent of FoxP3+ T-cells which flowed through the transwells for each group was evaluated using flow. The data is presented as a normalized percent of FoxP3+ cells which were recruited by the DCs for the first DC when both IL-4 and GM-CSF were used to culture the DC precursors and when GM-CSF was used alone in the last DC culture. […] See, FIG. 15.
When the DC culture was repeated with the absence of IL-4 and addition of 5×GM-CSF, flow cytometry indicated slightly different trends. […]
In the first two experiments, both GM-CSF and IL-4 were added to DC media (modified RPMI 1640) of bone marrow cell cultures during media changes on Days 0, 3 and 6. […] Five different groups of four wells each were analyzed and received treatment. […]
CD4+ T-cells were isolated from the spleen and lymph nodes of a mouse using Dynal® beads following a standard protocol. […] T Cells that flowed through were analyzed for FoxP3+ expression using flow cytometry.

**Q.** Which results are given for `CC1=C(/C=C/C(C)=C/C=C/C(C)=C/C(=O)O)C(C)(C)CCC1` [RA, all-trans retinoic acid]?
**A.** percent of CD4+ that express FoxP3 (naïve CD4+CD25− cells; RA 0.1 ng/ml, TGF-β 0 ng/ml): 2.71%; percent of CD4+ that express FoxP3 (naïve CD4+CD25− cells; RA 0.1 ng/ml, TGF-β 0.5 ng/ml): 11.98%; percent of CD4+ that express FoxP3 (naïve CD4+CD25− cells; RA 0.1 ng/ml, TGF-β 5 ng/ml): 35.18%; percent of CD4+ that express FoxP3 (naïve CD4+CD25− cells; RA 0.1 ng/ml, TGF-β 20 ng/ml): 28.33%; percent of CD4+ that express FoxP3 (naïve CD4+CD25− cells; RA 1 ng/ml, TGF-β 0 ng/ml): 2.64%; percent of CD4+ that express FoxP3 (naïve CD4+CD25− cells; RA 1 ng/ml, TGF-β 0.5 ng/ml): 10.5%; percent of CD4+ that express FoxP3 (naïve CD4+CD25− cells; RA 1 ng/ml, TGF-β 5 ng/ml): 44.71%; percent of CD4+ that express FoxP3 (naïve CD4+CD25− cells; RA 1 ng/ml, TGF-β 20 ng/ml): 42.25%; percent of CD4+ that express FoxP3 (naïve CD4+CD25− cells; RA 10 ng/ml, TGF-β 0 ng/ml): 2.27%; percent of CD4+ that express FoxP3 (naïve CD4+CD25− cells; RA 10 ng/ml, TGF-β 0.5 ng/ml): 9.36%; percent of CD4+ that express FoxP3 (naïve CD4+CD25− cells; RA 10 ng/ml, TGF-β 5 ng/ml): 42.22%; percent of CD4+ that express FoxP3 (naïve CD4+CD25− cells; RA 10 ng/ml, TGF-β 20 ng/ml): 45.97%; percent of CD4+ that express FoxP3 (naïve CD4+CD25− cells; RA 100 ng/ml, TGF-β 0 ng/ml): 2.23%; percent of CD4+ that express FoxP3 (naïve CD4+CD25− cells; RA 100 ng/ml, TGF-β 0.5 ng/ml): 10.01%; percent of CD4+ that express FoxP3 (naïve CD4+CD25− cells; RA 100 ng/ml, TGF-β 5 ng/ml): 50.71%; percent of CD4+ that express FoxP3 (naïve CD4+CD25− cells; RA 100 ng/ml, TGF-β 20 ng/ml): 43.43%; toxicity upon local administration [1]: induce hypervitaminosis-A

**Q.** With `CO[C@H]1C[C@@H]2CC[C@@H](C)[C@@](O)(O2)C(=O)C(=O)N2CCCC[C@H]2C(=O)O[C@H]([C@H](C)C[C@@H]2CC[C@@H](O)[C@H](OC)C2)CC(=O)[C@H](C)/C=C(\C)[C@@H](O)[C@@H](OC)C(=O)[C@H](C)C[C@H](C)/C=C/C=C/C=C/1C` [Rapa, rapamycin] as the molecule, how does the “percent of CD4+ that express FoxP3” value (naïve CD4+CD25− cells; Rapa 1 ng/ml, TGF-β 0 ng/ml) read?
**A.** Its value is 1.91%.

**Q.** What about the “percent of CD4+ that express FoxP3” value (naïve CD4+CD25− cells; Rapa 1 ng/ml, TGF-β 0.1 ng/ml) of the same molecule?
**A.** Its value is 3.04%.

**Q.** And the “percent of CD4+ that express FoxP3” value (naïve CD4+CD25− cells; Rapa 1 ng/ml, TGF-β 1 ng/ml)?
**A.** Its value is 8.89%.

**Q.** And the “percent of CD4+ that express FoxP3” value (naïve CD4+CD25− cells; Rapa 1 ng/ml, TGF-β 5 ng/ml)?
**A.** The value was 34.41%.

**Q.** And the “percent of CD4+ that express FoxP3” value (naïve CD4+CD25− cells; Rapa 1 ng/ml, TGF-β 20 ng/ml)?
**A.** Its value is 76.22%.

**Q.** What about the “percent of CD4+ that express FoxP3” value (naïve CD4+CD25− cells; Rapa 10 ng/ml, TGF-β 0 ng/ml) of the same molecule?
**A.** The value was 3.45%.

**Q.** What about the “percent of CD4+ that express FoxP3” value (naïve CD4+CD25− cells; Rapa 10 ng/ml, TGF-β 0.1 ng/ml) of the same molecule?
**A.** Its value is 5.31%.

**Q.** What about the “percent of CD4+ that express FoxP3” value (naïve CD4+CD25− cells; Rapa 10 ng/ml, TGF-β 1 ng/ml) of the same molecule?
**A.** The value was 14.48%.

**Q.** And the “percent of CD4+ that express FoxP3” value (naïve CD4+CD25− cells; Rapa 10 ng/ml, TGF-β 5 ng/ml)?
**A.** The value was 51.08%.

**Q.** And the “percent of CD4+ that express FoxP3” value (naïve CD4+CD25− cells; Rapa 10 ng/ml, TGF-β 20 ng/ml)?
**A.** Its value is 78.27%.

**Q.** And the “percent of CD4+ that express FoxP3” value (naïve CD4+CD25− cells; Rapa 100 ng/ml, TGF-β 0 ng/ml)?
**A.** Its value is 4.13%.

**Q.** What about the “percent of CD4+ that express FoxP3” value (naïve CD4+CD25− cells; Rapa 100 ng/ml, TGF-β 0.1 ng/ml) of the same molecule?
**A.** Its value is 7.8%.

**Q.** What about the “percent of CD4+ that express FoxP3” value (naïve CD4+CD25− cells; Rapa 100 ng/ml, TGF-β 1 ng/ml) of the same molecule?
**A.** Its value is 22.05%.

**Q.** And the “percent of CD4+ that express FoxP3” value (naïve CD4+CD25− cells; Rapa 100 ng/ml, TGF-β 5 ng/ml)?
**A.** Its value is 54.19%.

**Q.** What about the “percent of CD4+ that express FoxP3” value (naïve CD4+CD25− cells; Rapa 100 ng/ml, TGF-β 20 ng/ml) of the same molecule?
**A.** Its value is 80.36%.

**Q.** With “TGF-β: recombinant human TGF-β1 (CHO cell-derived, PeproTech), transforming growth factor β1” as the molecule, how does the “percent of CD4+ that express FoxP3” value (naïve CD4+CD25− cells; RA 0 ng/ml, TGF-β 0.5 ng/ml (Table 2)) read?
**A.** Its value is 8.08%.

**Q.** And the “percent of CD4+ that express FoxP3” value (naïve CD4+CD25− cells; RA 0 ng/ml, TGF-β 5 ng/ml (Table 2))?
**A.** The value was 28.52%.

**Q.** And the “percent of CD4+ that express FoxP3” value (naïve CD4+CD25− cells; RA 0 ng/ml, TGF-β 20 ng/ml (Table 2))?
**A.** Its value is 27.42%.

**Q.** And the “percent of CD4+ that express FoxP3” value (naïve CD4+CD25− cells; Rapa 0 ng/ml, TGF-β 0.1 ng/ml (Table 1))?
**A.** The value was 0.61%.

**Q.** And the “percent of CD4+ that express FoxP3” value (naïve CD4+CD25− cells; Rapa 0 ng/ml, TGF-β 1 ng/ml (Table 1))?
**A.** The value was 2.82%.

**Q.** What about the “percent of CD4+ that express FoxP3” value (naïve CD4+CD25− cells; Rapa 0 ng/ml, TGF-β 5 ng/ml (Table 1)) of the same molecule?
**A.** Its value is 18.16%.

**Q.** What about the “percent of CD4+ that express FoxP3” value (naïve CD4+CD25− cells; Rapa 0 ng/ml, TGF-β 20 ng/ml (Table 1)) of the same molecule?
**A.** Its value is 53.26%.

**Q.** Which results are given for “VIP: Vasoactive intestinal peptide, a 28-amino acid neuropeptide (HSDAVFTDNYTRLRKQMAVKKYLNSILN; ends and bridges not checked; UniProt P01282 125-152, looked up)”?
**A.** percentage of FoxP3+ cells recruited by treated DCs ([2]; DC precursors cultured with IL-4 and GM-CSF, versus LPS only or blank particle releasates): recruited a higher percentage of FoxP3+ cells; percentage of FoxP3+ cells recruited by treated DCs ([2]; no IL-4, 5×GM-CSF, relative to LPS alone): recruited the same percentage of FoxP3+ cells
